Data: US20030022920A1, “1-Methyl-4- (3-ethoxy-9H-thioxanthene-9-ylidene) -piperidine and its use as 5-HT2B/H1 receptor antagonist” (priority 2001, published 2003)

Experiments:
[1] = biological target: T1, human Histamine H1 receptor (Homo sapiens, UniProt P35367); assay: Cloned human H1, H2 and H3 receptor binding assay ([3H]-mepyramine, transfected COS-7 cell homogenates); settings: displacement of 1 nM [3H]-mepyramine, COS-7 homogenates; result in words only
T1 construct: expressed in transfected cells; host or cells: COS-7 (transient transfection; cell homogenates)
Protocol: Cloned Human H1, H2, and H3 Receptor Binding Assay
COS-7 cells were transiently transfected with an expression plasmid pCineohH1, pCineohH2, pCineohH3 and pCineohH4 encoding the human Histamine H1, H2, H3 or H4 receptor, respectively. Transfected cells were harvested after 48 h, homogenized in ice-cold 50 mM Na2/potassium phosphate buffer (pH 7.4) and used for radioligand binding studies. Cell homogenates (40-50 μg of protein) were incubated for 30 min at 25° C. in 50 mM Na2/potassium phosphate buffer (pH 7.4) in 400 μl with the various concentrations of either [^3H]-mepyramine, [^3H]-thiotidine, [^3H]-R-α-Methylhistamine, and [^3H]-pyramilamine for cells expressing recombinant human H1, H2, H3 and H4 receptors, respectively. The nonspecific binding was defined in the presence of 1 μM mianserin. In displacement studies, cell homogenated were incubated either with 1 nM [^3H]-mepyramine, 15 nM [^3H]-thiotidine, 0.5 nM [^3H]-R-α-Methylhistamine, or 15 nM [^3H]-pyramilamine and increasing concentrations of competing ligands. […] The bound radioactivity was seperated by filatration through Whatman GF/C filters that had been treated with 0.3% polyethyleneimine. Filters were washed twice in 3 ml of buffer and radioactivity retained on the filters was measured by liquid scinitllation counting. […]

human H1 receptor = biological target: T2, human H1 receptor (Homo sapiens, UniProt P35367); assay: Human histamine H1 receptor functional assay ([3H]-inositol phosphate formation in transfected HEK-293 cells); format: cell-based; settings: histamine-stimulated [3H]-inositol phosphate formation, result in words only
T2 construct: expressed in transfected cells; host or cells: HEK-293 (transient transfection; whole cells)
Protocol: Human Histamine H1 Receptor Functional Assay
For the measurement of the [^3H]-inositol phosphate formation transiently transfected HEK-293 cells were seeded in 24 well plates and labeled to equilibrium with myo-[2-^3H]-inositol (3 iCi/ml) for an additional 24 hours in growth medium. The medium was aspirated and cells were washed once with 500 μl HBS-buffer (130 mM NaCl, 900 μM NaH2PO4, 800 μM MgSO4, 5.4 mM KCl, 1.8 mM CaCl2, 25 mM Glucose in 20 mM HEPES pH 7.4). Two min after applying 20 mM Li^+ the cells were stimulated by addition of histamine in HBS-buffer. The incubation was stopped by aspiration off the culture medium and the addition of cold 10 mM formic acid. [^3H]inositol phosphates were isolated by anion exchange chromatography (see Seuwen et al., 1988, EMBO J., 7, 161-168). The pKB value was calculated according to the formula: pKB=log (A′/A−1)−log [B], where A′/A is the ratio of the agonist concentrations (EC50 in the presence/EC50 in the absence of antagonist) and [B] the concentration of antagonist.

human 5-HT2B receptor [2] = biological target: T3, human 5-HT2B receptor (Homo sapiens, UniProt P41595); assay: Cloned human 5-HT2B receptor binding assay ([3H]-5HT, transfected HEK 293 cell membranes); design: expressed in transfected cells; host or cells: HEK 293 (transient transfection; membranes); settings: [3H]5-HT 4 to 5 nM, 37° C. 30 min, result in words only
Protocol: Cloned Human 5-HT2B Receptor Binding Assay
The following describes an in vitro binding assay utilizing cloned 5-HT2B receptors radiolabelled with [^3H]-5HT.
HEK 293 cells transiently transfected with an expression plasmid pXMD1-hu2B encoding the human 5-HT2B receptor (see Schmuck et al., FEBS Lett., 1994, 342, 85-90) were used as described previously (Schmuck et al., Eur. J. Pharmacol., 1996, 8, 959-967). Two days after transfection cells were harvested, pelleted at 500 g for 5 min at 4° C., gently resuspended in ice-cold buffer1 (50 mM TRIS pH 7.7, 4 mM CaCl2) and homogenized using a Polytron PT 1200 tissue homogenizer (position 6 for 30 s). Cells were pelleted at 50,000 g, 4° C. for 10 min, washed with buffer1 and pelleted again. The final pellet was resuspended in incubation buffer (50 mM TRIS pH 7.7, 4 mM CaCl2, 10 μM pargyline and 0.1% by weight ascorbic acid). The binding assay consisted of 300 μl of membrane suspension (protein concentration =0.3 to 0.5 mg/ml), 150 μl of competing drug and 50 μl of [^3H]5-HT at a final concentration of 4 to 5 nM. […] Filters were counted by liquid scintillation. Non-specific binding was determined in the presence of an excess of 5-HT ([…]). […] Results are expressed as pK1 values. […]

human 5-HT2B receptor [3] = biological target: T3, human 5-HT2B receptor; assay: 5-HT2A/5-HT2B/5-HT2C receptor binding methods (counter screen for selectivity); design: expressed in transfected cells; host or cells: HEK293; settings: human 5-HT2B in HEK293, [3H]-5HT approx. 0.4 nM, 120 min at 4° C.; result in words only
Protocol: 5-HT2A 5-HT2B 5-HT2C Receptor Binding Methods
5-HT2A receptors were labelled with [^3H]ketanserin in human cortex, in HEK293 cells expressing a cloned human 5-HT2A receptor and in HEK293 cells expressing the rat 5-HT2A receptor. For competition binding studies the ligand concentration was approximately 0.1 nM. For saturation binding studies concentrations of radioligand ranged from 0.01 nM to 2.0 nM. Assays were conducted in 0.5 ml of assay buffer (50 mM Tris-HCl, 4 mM calcium chloride, 0.1% by weight ascorbic acid) (pH 7.4 at 4° C.). Non-specifc binding was defined with […] unlabelled ketanserin. After a 60 min incubation at 32° C., membranes were harvested onto filters treated with 0.1% by weight of polyethylenimine and the bound radioactivity was determined.
Human 5-HT2B receptors were labelled in HEK293 cells as described above. except that the radioligand was [^3H]-5HT and that the assay buffer contained pargyline in a concentration of 10 mM and 0.1% by weight of ascorbic acid. […]
Competition radioligand binding data was analyzed using a four parameter logistic equation and iterative curve-fitting techniques to obtain estimates of the IC50 and Hill slope. Kd values, determined from saturation binding studies were then used to calculate inhibition dissociation constants (Ki).

[4] = biological target: T4, 5-HT receptors (the putative 5-HT2B) in rat stomach fundus longitudinal muscle (Rattus norvegicus, UniProt P30994); assay: 5-HT2B receptor tissue based functional assay in rat stomach fundus longitudinal muscle; format: biochemical; settings: dextral shift of 5-HT agonist concentration-response curve, rat stomach fundus strips; result in words only
T4 construct: Strips of longitudinal muscle were obtained from the stomach fundus of male Sprague Dawley rats; from tissue; host or cells: rat stomach fundus longitudinal muscle strips
Protocol: 5-HT2B Receptor Tissue Based Functional Assay
The following describes an in vitro functional assay characterizing 5-HT receptors (the putative 5-HT2B) in rat stomach fundus longitudinal muscle (Baxter et al., Brit. J. Pharmacol. 1994, 112, 323-331).
Strips of longitudinal muscle were obtained from the stomach fundus of male Sprague Dawley rats. The mucosa was removed and the strips were suspended with a resting tension of 1 g in oxygenated (95% O2/5% CO2) Tyrode solution at 37° C. The composition of the Tyrode solution was as follows (mM): NaCl 136.9; KCl 2.7; NaH2PO4 0.4; MgCl2 1.0; glucose 5.6; NaHCO3 11.9; CaCl2 1.8. […]
Effects of drugs were monitored by tension transducers and recorded on polygraph recorders. Tissue response was measured as changes in isometric tension (g). The mean potency (EC50) and maximum response were evaluated by standard iterative curve fitting procedures.
Effects of antagonists were determined by measuring dextral shifts to the agonist concentration-response curve after equilibration of the antagonists for at least 1 h. Concentration ratios were measured at half maximal response levels and single concentration antagonist affinities were determined by the equation: [formula]

T3 sequence (P41595 whole entry): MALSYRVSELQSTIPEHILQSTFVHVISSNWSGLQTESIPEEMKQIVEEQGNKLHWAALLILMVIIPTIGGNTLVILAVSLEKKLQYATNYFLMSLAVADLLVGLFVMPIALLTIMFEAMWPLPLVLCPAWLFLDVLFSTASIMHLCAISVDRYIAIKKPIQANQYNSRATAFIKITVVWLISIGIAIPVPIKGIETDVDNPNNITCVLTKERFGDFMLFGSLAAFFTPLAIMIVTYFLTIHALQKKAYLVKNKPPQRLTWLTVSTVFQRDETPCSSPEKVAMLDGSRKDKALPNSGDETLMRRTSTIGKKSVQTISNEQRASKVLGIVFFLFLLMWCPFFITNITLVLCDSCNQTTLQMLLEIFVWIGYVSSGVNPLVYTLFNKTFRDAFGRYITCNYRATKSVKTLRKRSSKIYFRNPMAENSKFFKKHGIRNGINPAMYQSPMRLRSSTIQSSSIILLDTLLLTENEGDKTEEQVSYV
T1 sequence (P35367 whole entry): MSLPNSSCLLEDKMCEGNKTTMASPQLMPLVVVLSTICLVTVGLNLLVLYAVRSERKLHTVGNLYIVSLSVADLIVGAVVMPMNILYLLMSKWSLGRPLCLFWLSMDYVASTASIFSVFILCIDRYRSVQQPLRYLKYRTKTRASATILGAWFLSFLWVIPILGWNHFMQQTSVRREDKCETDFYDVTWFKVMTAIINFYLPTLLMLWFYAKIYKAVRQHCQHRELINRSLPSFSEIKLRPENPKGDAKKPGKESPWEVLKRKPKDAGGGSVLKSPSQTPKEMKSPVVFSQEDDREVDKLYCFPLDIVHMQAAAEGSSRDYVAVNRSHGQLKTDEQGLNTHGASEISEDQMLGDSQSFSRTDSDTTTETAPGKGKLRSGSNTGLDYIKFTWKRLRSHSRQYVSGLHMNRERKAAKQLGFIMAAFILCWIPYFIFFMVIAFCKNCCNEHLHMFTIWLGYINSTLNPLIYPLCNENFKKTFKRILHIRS
T2 sequence (P35367 whole entry): as above
T4 sequence (P30994 whole entry): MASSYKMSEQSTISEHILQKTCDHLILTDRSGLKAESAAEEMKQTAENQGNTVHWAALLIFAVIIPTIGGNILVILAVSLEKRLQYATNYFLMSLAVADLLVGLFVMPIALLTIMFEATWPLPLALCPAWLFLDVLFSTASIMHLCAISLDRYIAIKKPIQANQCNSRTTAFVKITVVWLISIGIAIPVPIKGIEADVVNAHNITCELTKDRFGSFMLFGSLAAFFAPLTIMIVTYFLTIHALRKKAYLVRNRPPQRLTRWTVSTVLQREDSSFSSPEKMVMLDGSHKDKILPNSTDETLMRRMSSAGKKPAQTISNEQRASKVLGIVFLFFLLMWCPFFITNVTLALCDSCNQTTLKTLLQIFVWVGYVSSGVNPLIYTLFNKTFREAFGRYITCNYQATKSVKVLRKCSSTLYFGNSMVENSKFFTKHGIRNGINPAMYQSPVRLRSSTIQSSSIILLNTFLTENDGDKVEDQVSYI

Compound: CCOc1ccc2c(c1)Sc1ccccc1C2=C1CCN(C)CC1 [1-methyl-4-(3-ethoxy-9H-thioxanthene-9-ylidene)-piperidine]
- affinity for the human H1 receptor [1]: found to have affinity for the human H1 receptor
- antagonism at the human H1 receptor (human H1 receptor): found to be an antagonist at the human H1 receptor
- affinity for the 5-HT2B receptor (human 5-HT2B receptor [2]): found to have affinity for the 5-HT2B receptor
- affinity for the 5-HT2B receptor (human 5-HT2B receptor [3]): found to have affinity for the 5-HT2B receptor
- antagonism at the 5-HT2B receptor [4]: found to be an antagonist at the 5-HT2B receptor
